ChEMBL document CHEMBL5346964, “Discovery of LNP1892: A Precision Calcimimetic for the Treatment of Secondary Hyperparathyroidism” (J Med Chem, 2023)

Tests used:
[1] = Oral bioavailability in BALB/c mouse at 10 mg/kg measured upto 24 hrs by LC/MS-MS analysis; format: ADME, organism-based; conditions: in vivo
[2] = Metabolic stability in dog liver cytosol measured upto 60 mins by LC-MS/MS method; format: ADME, subcellular, Canis lupus familiaris; conditions: read-out: Stability
Rattus norvegicus [3] = test: Chronic effect on parathyroid hormone in overnight fasted adenine diet-induced chronic kidney disease Wistar rat model plasma assessed as reduction in plasma PTH level at 1 mg/kg, po qd measured after 27 days of post treatment by sandwich ELISA analysis; format: functional; set-up: scale not given: the % may be the effect or the level left; conditions: time 27 day
[4] = Cmax in Sprague-Dawley rat at 1 mg/kg, iv measured upto 24 hrs by LC-MS/MS analysis; format: ADME, organism-based; set-up: dose 1 mg/kg, time < 24 hrs, route iv; conditions: in vivo
[5] = Chemical stability of the compound in 0.1N HCL measured after 0.5 to 4 hrs; format: physicochemical; conditions: buffer; time 0.5-4 hrs
Cytochrome P450 2B6 = target: T1, Cytochrome P450 2B6 (Homo sapiens, UniProt P20813); test: Inhibition of CYP2B6 in human liver microsomes preincubated for 5 mins followed by NADPH addition by LC-MS/MS analysis; format: ADME, Microsome
T1 sequence (P20813 whole entry): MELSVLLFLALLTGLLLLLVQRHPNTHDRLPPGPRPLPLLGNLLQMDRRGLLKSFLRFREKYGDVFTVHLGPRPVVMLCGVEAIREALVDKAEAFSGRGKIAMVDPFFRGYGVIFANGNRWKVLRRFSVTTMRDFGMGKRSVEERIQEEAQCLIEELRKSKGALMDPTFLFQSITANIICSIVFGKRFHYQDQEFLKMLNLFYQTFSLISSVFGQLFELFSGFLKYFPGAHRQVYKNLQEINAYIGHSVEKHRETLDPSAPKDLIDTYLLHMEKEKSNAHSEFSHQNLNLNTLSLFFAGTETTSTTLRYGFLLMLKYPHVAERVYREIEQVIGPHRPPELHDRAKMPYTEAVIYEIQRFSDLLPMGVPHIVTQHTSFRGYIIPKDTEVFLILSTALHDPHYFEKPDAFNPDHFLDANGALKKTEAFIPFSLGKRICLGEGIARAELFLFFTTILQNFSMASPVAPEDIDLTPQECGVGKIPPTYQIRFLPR

[6] = Toxicity in monkey assessed as NOAEL; set-up: species or system Macaca mulatta; conditions: rhesus monkey, in vivo
[7] = Effect on parathyroid hormone in overnight fasted Sprague-Dawley rat assessed as reduction in plasma PTH level at 10 mg/kg, po measured after 0.5 hrs of post treatment by sandwich ELISA analysis; format: functional; set-up: scale not given: the % may be the effect or the level left
[8] = Effect on parathyroid hormone in overnight fasted adenine diet-induced chronic kidney disease Wistar rat model plasma assessed as reduction in PTH level at 1 mg/kg, po measured after 1 hrs of post treatment by sandwich ELISA analysis; format: functional; set-up: scale not given: the % may be the effect or the level left
[9] = Tmax in Sprague-Dawley rat at 100 mg/kg; format: ADME, organism-based; conditions: in vivo
[10] = Drug excretion in rat assessed as drug recovery in feces at 1 mg/kg, iv; format: ADME, organism-based; conditions: faeces, read-out: Drug recovery
Rattus norvegicus [11] = test: Acute effect on parathyroid hormone in overnight fasted adenine diet-induced chronic kidney disease Wistar rat model assessed as reduction in plasma PTH level at 3 mg/kg, po measured after 1 hrs of post treatment by sandwich ELISA analysis; format: functional; set-up: scale not given: the % may be the effect or the level left
[12] = Protein binding in human plasma incubated for 16 hrs under shaking condition by rapid equilibrium dialysis based LC-MS/MS method; format: ADME, cell-free; conditions: read-out: PPB
[13] = AUC(0 to 24 hrs) in Sprague-Dawley rat at 100 mg/kg; format: ADME, organism-based; set-up: dose 100 mg/kg; conditions: in vivo
[14] = Chemical stability of the compound in SGF measured after 0.5 to 4 hrs; format: physicochemical; conditions: simulated gi fluid; time 0.5-4 hrs
Rattus norvegicus [15] = test: Subchronic effect on parathyroid hormone in overnight fasted adenine diet-induced chronic kidney disease Wistar rat model plasma assessed as reduction in plasma PTH level at 0.3 mg/kg, po qd measured after 27 days of post treatment by sandwich ELISA analysis; format: functional; set-up: scale not given: the % may be the effect or the level left; conditions: time 27 day
CYP1A2 = target: T2, CYP1A2 (Homo sapiens, UniProt P05177); test: Inhibition of CYP1A2 in human liver microsomes at 10 uM preincubated for 5 mins followed by NADPH addition by LC-MS/MS analysis relative to control; format: ADME, Microsome
T2 sequence (P05177 whole entry): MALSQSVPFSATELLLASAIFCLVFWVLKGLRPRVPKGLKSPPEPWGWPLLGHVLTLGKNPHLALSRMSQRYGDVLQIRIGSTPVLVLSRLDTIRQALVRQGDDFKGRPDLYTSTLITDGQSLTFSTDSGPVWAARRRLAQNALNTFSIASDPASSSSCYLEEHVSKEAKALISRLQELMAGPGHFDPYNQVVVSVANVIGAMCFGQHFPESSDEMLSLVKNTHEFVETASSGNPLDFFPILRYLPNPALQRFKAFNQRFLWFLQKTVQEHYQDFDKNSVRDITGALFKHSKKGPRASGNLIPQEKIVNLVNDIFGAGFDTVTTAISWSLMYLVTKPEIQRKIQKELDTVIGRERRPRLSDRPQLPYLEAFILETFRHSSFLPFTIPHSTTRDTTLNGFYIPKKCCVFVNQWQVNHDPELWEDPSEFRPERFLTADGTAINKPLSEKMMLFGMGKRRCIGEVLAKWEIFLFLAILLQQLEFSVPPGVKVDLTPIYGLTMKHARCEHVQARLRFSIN

[16] = Drug excretion in rat assessed as drug recovery in feces at 10 mg/kg, po; format: ADME, organism-based; conditions: faeces, read-out: Drug recovery
[17] = Toxicity in mouse assessed as NOAEL; conditions: in vivo
[18] = Kinetic solubility of compound in FeSSIF upto 500 uM measured after 16 hrs under shaking condition by UV-visible method; format: physicochemical; conditions: read-out: Kinetic_solubility
[19] = Volume of distribution at steady state in Beagle dog at 1 mg/kg, iv measured upto 24 hrs by LC/MS-MS analysis; format: ADME, organism-based, Canis lupus familiaris; conditions: in vivo, read-out: Vdss
[20] = Cmax in human at 10 mg/kg, po administered as single dose; format: ADME, organism-based; set-up: dose 10 mg/kg, route po; conditions: in vivo
[21] = Kinetic solubility of compound in 0.1N HCL upto 500 uM measured after 16 hrs under shaking condition by UV-visible method; format: physicochemical; conditions: read-out: Kinetic_solubility
[22] = AUC(0 to t) in rat at 50 mg/kg per day, po via gavage administered for 2 weeks; format: ADME, organism-based; set-up: dose 50 mg/kg, time 2 weeks, route po; conditions: in vivo
[23] = AUC in cynomolgus monkey at 5 mg/kg, po measured upto 24 hrs by LC/MS-MS analysis; format: ADME, organism-based, Macaca fascicularis; set-up: dose 5 mg/kg, time < 24 hrs, route po; conditions: in vivo
[24] = Toxicity in rat assessed as maximum tolerated dose; conditions: in vivo
[25] = Microsomal stability in human liver microsomes assessed as parent compound remaining at 1 uM measured upto 30 mins in presence of NADPH by LC-MS/MS analysis; format: ADME, Microsome; conditions: liver microsomes, read-out: Stability
[26] = target: Delta-type opioid receptor (Homo sapiens) (UniProt P41143); test: Inhibition of human recombinant DOP receptor at 10 uM relative to control
Chain of Delta-type opioid receptor (Homo sapiens) (P41143 whole entry): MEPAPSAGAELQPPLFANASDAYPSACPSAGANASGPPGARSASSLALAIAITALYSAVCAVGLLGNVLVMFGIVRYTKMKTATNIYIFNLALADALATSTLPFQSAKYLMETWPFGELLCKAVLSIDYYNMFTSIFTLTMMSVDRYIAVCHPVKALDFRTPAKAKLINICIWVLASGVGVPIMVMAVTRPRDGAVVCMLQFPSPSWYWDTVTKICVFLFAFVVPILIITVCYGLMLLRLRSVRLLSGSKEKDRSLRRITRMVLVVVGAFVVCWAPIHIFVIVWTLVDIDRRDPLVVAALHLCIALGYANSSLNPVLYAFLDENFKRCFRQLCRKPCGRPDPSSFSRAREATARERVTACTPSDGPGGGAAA

[27] = Chemical stability of the compound at pH 2 measured after 0.5 to 4 hrs; format: physicochemical; conditions: buffer, time 0.5-4 hrs

## Cc1ccc([C@@H]2C[C@H](CN[C@H](C)c3cccc4ccccc34)Oc3ccccc32)cc1C(=O)O.Cl
[1]
  bioavailability: 100%
[2]
  remaining at 1 h: > 80%
Rattus norvegicus [3]
  Activity: 65%
[4]
  Cmax: 2000 nM
[5]
  Stability: Stable
Cytochrome P450 2B6
  IC50: 64 µM
[6]
  NOAEL: 50 mg/kg/day
[7]
  Activity: 100%
[8]
  Activity: 95%
[9]
  Tmax: 1 h
[10]
  dose excreted: 10%
Rattus norvegicus [11]
  Activity: 96%
[12]
  fraction unbound at 16 h: < 0.01
[13]
  AUC(0-t): 426 µM·h
[14]
  Stability: Stable
Rattus norvegicus [15]
  Activity: 73%
CYP1A2
  inhibition at 10 µM: 0%
[16]
  dose excreted: 3%
[17]
  NOAEL: 50 mg/kg/day
[18]
  solubility kinetic at 16 h, 500 µM: > 300 µM
[19]
  Vd: 0.7 L/kg
[20]
  Cmax: 202 ng/mL
[21]
  solubility kinetic at 16 h, 500 µM: > 200 µM
[22]
  AUC(0-t) at 336 h: 108 µg·h/mL
[23]
  AUC at 24 h: 1.3 µM·h
[24]
  MTD: 1000 mg/kg
[25]
  remaining at 0.5 h, 1 µM: 73%
[26]
  inhibition: > 50%
[27]
  Stability: Stable
